# Measured values published in patent US9376424B2, “Methods for treating post traumatic stress disorder” (AZEVAN PHARMACEUTICALS, INC., priority 2010, dated 2016).
# Entries after “also recorded” stand apart in the source; their conditions may differ.
# Legend:
# resident male rats = experiment: Resident-Intruder Model of Stress and Aggression in Rats (neuroimaging); type: in vivo, rat; conditions: awake resident male rats, 5 mg/kg
# Description: Resident-Intruder Model of Stress and Aggression in Rats. Neuroimaging is used to assess the blockade of stress/arousal with test compound compared to control. The effect of AVN251-HCl on functional circuitry was examined using the imaging method for awake rats. Additional details of the assay are described in Ferris et al. (2008).
# Male rats in the company of a female cage mate will piloerect in the presence of a male intruder. This piloerection is a sign of stress and aggressive intent and is associated with activation of stress/arousal circuits in the brain. […] Resident male rats from six male:female pairs were imaged while fully awake. During a single imaging session, these males were treated with vehicle or AVN251-HCl (5 mg/kg).
# The total volume of brain activation for resident males confronted with their mate alone, mate plus intruder, and mate plus intruder in the presence of AVN251-HCl can be viewed as 3D models. While there appears to be a general decrease in BOLD signal in major regions with AVN251-HCl treatment, sexual motivation, as assessed by the presentation of a novel receptive female, was unaffected by V1a receptor blockade.
# Stress circuit activation in response to an intruder male is assessed by obtaining brain scans viewed from a caudal/dorsal perspective as translucent shells. The localization of activated voxels is mapped as 3D volumes of activation, which are composed of 10 subjects each. Once fully registered and segmented, the statistical responses for each subject are averaged on a voxel-by-voxel basis. Those averaged voxels exceeding a 2.0% threshold are shown in their appropriate spatial location. Functional images are acquired on awake rats at 4.7 T.
# The 3D volumes of activation are composed from results obtained with 10 subjects in each condition. […] Particular olfactory systems measured included the anterior olfactory nucleus, olfactory tubercle, piriform cortex, n. laterial olfactory tract, and entrorhinal cortex. Particular dopaminergic systems measured included the prelimbic cortex, accumbens, ventral pallidum, medial dorsal thalamus, and ventral tegmentum.
# Awake rats were imaged when presented with their mate+an intruder, a highly stressful stimulus.
# C57B1/6J males = experiment: Social Interaction Test after chronic social subjugation; type: in vivo, mouse; conditions: mice, 28-day treatment regimen
# Description: Mouse Chronic Subordination Model of Depression. Social stress is a factor in the etiology of several psychopathologies, with individuals differing in vulnerability. Adult male mice are subjected to a model of chronic psychosocial stress in which resident/intruder dyads live chronically in sensory contact and physically interact on a daily basis.
# Anti-depressant Effect in the Social Interaction Test. […] A rapid subjugation paradigm in mice lead to diminished social interaction behavior, where the dependent measures are distance traveled and time in the Interaction Zone. […] These observations are consistent with the subordination/social interaction model as a rapid behavioral screen for potential antidepressants. Additional details are described in Berton et al. (2006).
# Briefly, C57B1/6J males were defeated daily for 10 days by resident, highly aggressive CF-1 males. After 5 minutes of direct exposure, a perforated plastic partition was inserted into the cage that allowed olfactory and visual contact without physical defeat for the remaining 23 hr 55 min each day. The C57 males were exposed to a different resident male in a different cage each day to increase the stress of the procedure (it was observed that all CF-1 males attacked the intruder each day). At the end of the 10 day defeat procedure, the C57 males were tested in an open field apparatus during the dark phase. A dominant male was caged in an area of the open field apparatus termed the “social interaction zone.” Time and distance traveled in the zone were recorded. The C57 males were then divided randomly among the following treatments: AVN246-HCl (2 mg/kg), saline vehicle (0.45%), or chlordiazepoxide (10 mg/kg). Treatments were given daily (i.p.) for 28 days and the animals were retested. Behavioral changes were determined by calculating difference scores (Post-Pretest) and these scores were analyzed.
# human V1a receptor = target: T1, human V1a receptor (Homo sapiens, UniProt P37288); experiment: Inhibition of phosphatidylinositol turnover (V1a); type: cell-based; conditions: V1a
# T1 construct: host or cells: CHO cells
# T1 sequence (P37288 whole entry): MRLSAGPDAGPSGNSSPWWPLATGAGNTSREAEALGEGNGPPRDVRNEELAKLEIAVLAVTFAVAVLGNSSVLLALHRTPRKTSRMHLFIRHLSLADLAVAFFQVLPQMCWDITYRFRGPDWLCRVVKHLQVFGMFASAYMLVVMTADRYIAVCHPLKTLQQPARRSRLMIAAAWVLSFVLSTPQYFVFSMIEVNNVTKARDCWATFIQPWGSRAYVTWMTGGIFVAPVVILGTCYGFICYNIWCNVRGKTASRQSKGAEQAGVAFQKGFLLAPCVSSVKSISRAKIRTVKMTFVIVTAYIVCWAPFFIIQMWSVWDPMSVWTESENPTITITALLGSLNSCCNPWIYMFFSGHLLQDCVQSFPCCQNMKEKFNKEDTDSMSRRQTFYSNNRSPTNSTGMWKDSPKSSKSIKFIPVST
# Description: Inhibition of phosphatidylinositol turnover (V1a). The physiological effects of vasopressin are mediated through specific G-protein coupled receptors. The vasopressin V1a receptor is coupled to the Gq/G11 family of G proteins and mediates phosphatidylinositol turnover. The agonist or antagonist character of the compounds of the invention may be determined by their ability to inhibit vasopressin-mediated turnover of phosphatidylinositol by the procedure described in the following paragraphs.
# Cell culture and labeling of cells. Three days prior to the assay, near-confluent cultures of hV1a or hV1b cells were dissociated and seeded in 6-well tissue culture plates, about 100 wells being seeded from each 75 cm^2 flask (equivalent to 12:1 split ratio). Each well contained 1 mL of growth medium with 2 μCi of [^3H]myo-inositol (American Radiolabeled Chemicals, St. Louis, Mo., USA).
# Incubations (V1a and V1b). All assays were in triplicate except for basal and 10 nM AVP (both n=6). AVP ((arginine vasopressin), Peninsula Labs, Belmont, Calif., USA (#8103)) was dissolved in 0.1N acetic acid. Test agents were dissolved in DMSO and diluted in DMSO to 200 times the final test concentration. […] The order of incubations was randomized. Incubations were initiated by removing the prelabeling medium, washing the monolayer once with 1 mL of 0.9% NaCl, and transferring the contents of the assay tubes to corresponding wells. The plates were incubated for 1 hour at 37° C. Incubations were terminated by removing the incubation medium and adding 500 μL of ice cold 5% (w/v) trichloroacetic acid and allowing the wells to stand for 15 min.
# Measurement of [^3H]inositol phosphates (V1a and V1b). BioRad Poly-Prep Econo-Columns were packed with 0.3 mL of AG 1×−8 100-200 formate form resin. Resin was mixed 1:1 with water and 0.6 mL added to each column. Columns were then washed with 10 mL water. Scintillation vials (20 mL) were placed under each column. For each well, the contents were transferred to a minicolumn, after which the well was washed with 0.5 mL distilled water, which was also added to the minicolumn. The columns were then washed twice with 5 mL of 5 mM myo-inositol to elute free inositol. Aliquots (1 mL) were transferred to 20 mL scintillation vials and 10 mL of Beckman Ready Protein Plus added. After the myo-inositol wash was complete, empty scintillation vials were placed under the columns, and [^3H]inositol phosphates were eluted with three additions of 1 mL 0.5 M ammonium formate containing 0.1 N formic acid. Elution conditions were optimized to recover inositol mono-, bis-, and trisphosphates, without eluting the more metabolically inert tetrakis-, pentakis-, and hexakis-phosphates. To each sample was added 10 mL of a high salt capacity scintillation fluid such as Tru-Count High Salt Capacity or Packard Hionic-Fluor. Inositol lipids were measured by adding 1 mL of 2% sodium dodecyl sulfate (SDS) to each well, allowing the wells to stand for at least 30 min., and transferring the solution to 20 mL scintillation vials, to which 10 mL Beckman Ready Protein Plus scintillation fluid was then added. Samples were counted in a Beckman LS 3801 liquid scintillation counter for 10 min. Total inositol incorporation for each well was calculated as the sum of free inositol, inositol phosphates, and inositol lipids.
# Data analysis (V1a and V1b): concentration-inhibition experiments. Concentration-response curves for AVP and concentration-inhibition curves for test agents versus 10 nM AVP were analyzed by nonlinear least-squares curve-fitting to a 4-parameter logistic function. Parameters for basal and maximal inositol phosphates, EC50 or IC50, and Hill coefficient were varied to achieve the best fit. The curve-fitting was weighted under the assumption that the standard deviation was proportional to dpm of radioactivity. Full concentration-response curves for AVP were run in each experiment. […]
# male Long Evans rats = experiment: Predatory fear conditioning model of PTSD (ferret/sucrose, fMRI of awake rats); type: in vivo, rat
# Description: The use of the compounds and compositions described herein for treating PTSD and stress-related affective illness is established using a model of predatory fear conditioning. The model uses fMRI data of rats exposed to a ferret, a natural predator, as the unconditioned stimulus while experiencing the taste of sucrose, which is highly rewarding, as the conditioned stimulus. The taste of sucrose becomes associated with the traumatic memory of the ferret. […] This hyperarousal pattern of brain activity in response to a stimulus associated with a traumatic memory is characteristic of PTSD. […] Thus, the memory of fear is worse than fear itself. Treatment with compounds and compositions described herein block the hyperarousal seen with the sucrose-associated traumatic memory in untreated animals. The compounds described herein are efficacious in a this new preclinical model of PTSD in rats that utilized predatory fear as the unconditioned stimulus and the taste of sucrose as the conditioned stimulus. […] Compounds described herein are also efficacious in established models of depression (social interaction test), anxiety (Elevated Plus Maze, Light:Dark Shuttle Box), and aggression (resident:intruder test). The predatory fear conditioning juxtaposes an aversive unconditioned stimulus (threat of predation), with the taste of sucrose as the conditioned stimulus. During an imaging session, awake rats are exposed to a live, sable ferret placed into the bore of the magnet. This presentation of the predator is done with and without the application of sucrose to the tongue of the rat. Retrieval of the memory weeks later by the application of sucrose alone (as a Conditioned Stimulus) in the absence of the ferret elicits a robust increase in brain activity that far exceeds the initial presentation of the predator. […]
structure (smiles),measurement,setting,value
CNCCC(Oc1ccc(C(F)(F)F)cc1)c1ccccc1 (stereo not shown) [fluoxetine],sexual motivation (reward circuit activation by novel receptive female),resident male rats,markedly diminished activation of this circuit
same,effect on deficits in social interaction produced by chronic subordination,C57B1/6J males,reversed deficits produced by chronic subordination
same,effect on deficits in social interaction produced by chronic subordination,C57B1/6J males; listed as Fluoxetine,produced comparable improvements
"O=C(NCc1cccc(C(F)(F)F)c1)C(CCC(=O)N1CCN(C2CCCCC2)CC1)N1C(=O)C(N2C(=O)OCC2c2ccccc2)C1C=Cc1ccccc1 (single isomer, unassigned) [Example 110]",agonist or antagonist character (inhibition of vasopressin-mediated phosphatidylinositol turnover),human V1a receptor,vasopressin V1a antagonists
O=C(NCc1cccc(C(F)(F)F)c1)C(CC(=O)N1CCC(N2CCCCC2)CC1)N1C(=O)C(N2C(=O)OCC2c2ccccc2)C1C=Cc1ccccc1 (stereo not shown) [Example 44],agonist or antagonist character (inhibition of vasopressin-mediated phosphatidylinositol turnover),human V1a receptor,vasopressin V1a antagonists
"O=C(NCc1cccc(C(F)(F)F)c1)[C@H](CCC(=O)N1CCN(CCc2ccccc2)CC1)N1C(=O)[C@@H](N2C(=O)OC[C@@H]2c2ccccc2)[C@H]1C=Cc1ccccc1 (single isomer, unassigned) [Example 35]",agonist or antagonist character (inhibition of vasopressin-mediated phosphatidylinositol turnover),human V1a receptor,vasopressin V1a antagonists
C[C@@H](NC(=O)[C@@H](CC(=O)N1CCC(N2CCCCC2)CC1)N1C(=O)[C@@H](N2C(=O)OC[C@@H]2c2ccccc2)[C@H]1/C=C/c1cccc(I)c1)c1ccccc1 [Example 266],retrieval of predatory fear memory,male Long Evans rats,effective in blocking retrieval of predatory fear memory
same,predatory fear response in the unconditioned test animal (activation for ferret alone),male Long Evans rats; pretreatment 5 mg/kg body weight,retained
same,hyperarousal brain activation pattern (BOLD) on re-exposure to sucrose alone,"male Long Evans rats; pretreatment 5 mg/kg body weight, two weeks after conditioning, listed as AVN576",blocked the hyperarousal brain activation pattern; also recorded: significantly reduces brain activation
O=C(NCc1cccc(C(F)(F)F)c1)C(CCC(=O)N1CCC(N2CCCCC2)CC1)N1C(=O)C(N2C(=O)OCC2c2ccccc2)C1C=Cc1ccccc1 (stereo not shown) [Example 88],agonist or antagonist character (inhibition of vasopressin-mediated phosphatidylinositol turnover),human V1a receptor,vasopressin V1a antagonists
